# In patent publication US10597388B2, “Pyridazinone herbicides” (FMC CORPORATION, priority 2014, dated 2020):
# Key:
# Assay in all cases: Test D controlled growth environment herbicide test, pre- and postemergence
# Format in all cases: in vivo
# [1] = system: ryegrass, Italian (Italian ryegrass, Lolium multiflorum)
# Source text: (§1) Seeds of plant species selected from bluegrass (annual bluegrass, Poa annua), blackgrass (Alopecurus myosuroides), Canada thistle (Cirsium arvense), canarygrass (Phalaris minor), chickweed (common chickweed, Stellaria media), geranium, cutleaf (cutleaf geranium, Geranium dissectum), galium (catchweed bedstraw, Galium aparine), bromegrass, downy (downy bromegrass, Bromus tectorum), field poppy (Papaver rhoeas), field violet (Viola arvensis), foxtail, green (green foxtail, Setaria viridis), deadnettle (henbit deadnettle, Lamium amplexicaule), ryegrass, Italian (Italian ryegrass, Lolium multiflorum), kochia (Kochia scoparia), lambsquarters (Chenopodium album), oilseed rape (Brassica napus), pigweed (Amaranthus retroflexus), chamomile (scentless chamomile, Matricaria inodora), Russian thistle (Salsola kali), speedwell (bird's-eye speedwell, Veronica persica), barley, spring (spring barley, Hordeum vulgare), wheat, spring (spring wheat, Triticum aestivum), buckwheat, wild (wild buckwheat, Polygonum convolvulus), mustard, wild (wild mustard, Sinapis arvensis), oat, wild (wild oat, Avena fatua), radish, wild (wild radish, Raphanus raphanistrum), windgrass (Apera spica-venti), barley, winter (winter barley, Hordeum vulgare), and wheat, winter (winter wheat, Triticum aestivum) were planted into a silt loam soil and treated preemergence with test chemicals formulated in a non-phytotoxic solvent mixture which included a surfactant.
# (§2) At the same time, these species were planted in pots containing Redi-Earth® planting medium (Scotts Company, 14111 Scottslawn Road, Marysville, Ohio 43041) comprising spaghnum peat moss, vermiculite, wetting agent and starter nutrients and treated with postemergence applications of the test chemicals formulated in the same manner. Plants ranged in height from 2 to 18 cm (1- to 4-leaf stage). Treated plants and controls were maintained in a controlled growth environment for 14 to 21 d after which time all species were compared to controls and visually evaluated. Plant response ratings, summarized in Table D, are based on a scale of 0 to 100 where 0 is no effect and 100 is complete control. A dash (-) response means no test result.
# [2] = system: field violet (Viola arvensis)
# Source text: as §1, §2
# [3] = system: Russian thistle (Salsola kali)
# Source text: as §1, §2
# [4] = system: wheat, spring (spring wheat, Triticum aestivum)
# Source text: as §1, §2
# [5] = system: deadnettle (henbit deadnettle, Lamium amplexicaule)
# Source text: as §1, §2
# [6] = system: lambsquarters (Chenopodium album)
# Source text: as §1, §2
# [7] = system: windgrass (Apera spica-venti)
# Source text: as §1, §2
# [8] = system: blackgrass (Alopecurus myosuroides)
# Source text: as §1, §2
# [9] = system: canarygrass (Phalaris minor)
# Source text: as §1, §2
# [10] = system: foxtail, green (green foxtail, Setaria viridis)
# Source text: as §1, §2
# [11] = system: wheat, winter (winter wheat, Triticum aestivum)
# Source text: as §1, §2
# [12] = system: kochia (Kochia scoparia)
# Source text: as §1, §2
# [13] = system: chickweed (common chickweed, Stellaria media)
# Source text: as §1, §2
# [14] = Postemergence, 31 g ai/ha, scale 0 to 100 (0 no effect, 100 complete control)
# [15] = Postemergence, 125 g ai/ha, visual rating on scale 0 (no effect) to 100 (complete control), 14 to 21 d
# [16] = Postemergence, 250 g ai/ha, scale 0 to 100 (0 no effect, 100 complete control)
# [17] = Preemergence, 62 g ai/ha, scale 0 to 100 (0 no effect, 100 complete control)
# [18] = Preemergence, 125 g ai/ha, scale 0 to 100 (0 no effect, 100 complete control)
# [19] = Preemergence, 250 g ai/ha, scale 0 to 100 (0 no effect, 100 complete control)
# [20] = postemergence, 62 g ai/ha, scale 0 to 100, 0 no effect, 100 complete control
structure (smiles),measurement,setting,value
COc1nn(C)c(=O)c(-c2c(C)ccc3ccccc23)c1OC(=O)OC(C)C [Compound 36],"Ryegrass, Italian plant response rating",[1]; [14],75
same,"Plant response rating, Ryegrass, Italian",[1]; [15],90
same,"Plant response rating, Ryegrass, Italian",[1]; [16],90
same,"Plant response rating (scale of 0 to 100), Ryegrass, Italian","[1]; Preemergence, 31 g ai/ha",20
same,"Plant response rating, Ryegrass, Italian",[1]; [17],65
same,"Plant response rating, Ryegrass, Italian",[1]; [18],70
same,"Plant response rating, Ryegrass, Italian",[1]; [19],70
same,"Plant response rating, Ryegrass, Italian",[1]; [20],80
same,Field Violet plant response rating,[2]; [14],70
same,"Plant response rating, Field Violet",[2]; [15],90
same,"Plant response rating, Field Violet",[2]; [16],90
same,"Plant response rating (scale of 0 to 100), Field Violet","[2]; Preemergence, 31 g ai/ha",15
same,"Plant response rating, Field Violet",[2]; [17],10
same,"Plant response rating, Field Violet",[2]; [18],70
same,"Plant response rating, Field Violet",[2]; [19],95
same,"Plant response rating, Field Violet",[2]; [20],85
same,Russian Thistle plant response rating,[3]; [14],80
same,"Plant response rating, Russian Thistle",[3]; [15],85
same,"Plant response rating, Russian Thistle",[3]; [16],90
same,"Plant response rating (scale of 0 to 100), Russian Thistle","[3]; Preemergence, 31 g ai/ha",0
same,"Plant response rating, Russian Thistle",[3]; [17],15
same,"Plant response rating, Russian Thistle",[3]; [18],10
same,"Plant response rating, Russian Thistle",[3]; [19],15
same,"Plant response rating, Russian Thistle",[3]; [20],85
same,"Wheat, Spring plant response rating",[4]; [14],0
same,"Plant response rating, Wheat, Spring",[4]; [15],0
same,"Plant response rating, Wheat, Spring",[4]; [16],10
same,"Plant response rating (scale of 0 to 100), Wheat, Spring","[4]; Preemergence, 31 g ai/ha",0
same,"Plant response rating, Wheat, Spring",[4]; [17],0
same,"Plant response rating, Wheat, Spring",[4]; [18],0
same,"Plant response rating, Wheat, Spring",[4]; [19],30
same,"Plant response rating, Wheat, Spring",[4]; [20],0
same,Deadnettle plant response rating,[5]; [14],80
same,"Plant response rating, Deadnettle",[5]; [15],100
same,"Plant response rating, Deadnettle",[5]; [16],100
same,"Plant response rating (scale of 0 to 100), Deadnettle","[5]; Preemergence, 31 g ai/ha",0
same,"Plant response rating, Deadnettle",[5]; [17],0
same,"Plant response rating, Deadnettle",[5]; [18],50
same,"Plant response rating, Deadnettle",[5]; [19],85
same,"Plant response rating, Deadnettle",[5]; [20],100
same,Lambsquarters plant response rating,[6]; [14],95
same,"Plant response rating, Lambsquarters",[6]; [15],100
same,"Plant response rating, Lambsquarters",[6]; [16],100
same,"Plant response rating (scale of 0 to 100), Lambsquarters","[6]; Preemergence, 31 g ai/ha",75
same,"Plant response rating, Lambsquarters",[6]; [17],95
same,"Plant response rating, Lambsquarters",[6]; [18],75
same,"Plant response rating, Lambsquarters",[6]; [19],95
same,"Plant response rating, Lambsquarters",[6]; [20],95
same,Windgrass plant response rating,[7]; [14],40
same,"Plant response rating, Windgrass",[7]; [15],70
same,"Plant response rating, Windgrass",[7]; [16],75
same,"Plant response rating (scale of 0 to 100), Windgrass","[7]; Preemergence, 31 g ai/ha",0
same,"Plant response rating, Windgrass",[7]; [17],5
same,"Plant response rating, Windgrass",[7]; [18],5
same,"Plant response rating, Windgrass",[7]; [19],65
same,"Plant response rating, Windgrass",[7]; [20],50
same,Blackgrass plant response rating,[8]; [14],25
same,"Plant response rating, Blackgrass",[8]; [15],45
same,"Plant response rating, Blackgrass",[8]; [16],70
same,"Plant response rating (scale of 0 to 100), Blackgrass","[8]; Preemergence, 31 g ai/ha",15
same,"Plant response rating, Blackgrass",[8]; [17],30
same,"Plant response rating, Blackgrass",[8]; [18],35
same,Blackgrass plant response rating,[8]; [19],50
same,"Plant response rating, Blackgrass",[8]; [20],35
same,Canarygrass plant response rating,[9]; [14],15
same,"Plant response rating, Canarygrass",[9]; [15],55
same,"Plant response rating, Canarygrass",[9]; [16],80
same,"Plant response rating (scale of 0 to 100), Canarygrass","[9]; Preemergence, 31 g ai/ha",0
same,"Plant response rating, Canarygrass",[9]; [17],45
same,"Plant response rating, Canarygrass",[9]; [18],40
same,"Plant response rating, Canarygrass",[9]; [19],65
same,"Plant response rating, Canarygrass",[9]; [20],40
same,"Foxtail, Green plant response rating",[10]; [14],35
same,"Plant response rating, Foxtail, Green",[10]; [15],80
same,"Plant response rating, Foxtail, Green",[10]; [16],90
same,"Plant response rating (scale of 0 to 100), Foxtail, Green","[10]; Preemergence, 31 g ai/ha",45
same,"Plant response rating, Foxtail, Green",[10]; [17],25
same,"Plant response rating, Foxtail, Green",[10]; [18],70
same,"Plant response rating, Foxtail, Green",[10]; [19],75
same,"Plant response rating, Foxtail, Green",[10]; [20],45
same,"Wheat, Winter plant response rating",[11]; [14],0
same,"Plant response rating, Wheat, Winter",[11]; [15],5
same,"Plant response rating, Wheat, Winter",[11]; [16],15
same,"Plant response rating (scale of 0 to 100), Wheat, Winter","[11]; Preemergence, 31 g ai/ha",0
same,"Plant response rating, Wheat, Winter",[11]; [17],0
same,"Plant response rating, Wheat, Winter",[11]; [18],0
same,"Plant response rating, Wheat, Winter",[11]; [19],0
same,"Plant response rating, Wheat, Winter",[11]; [20],0
same,Kochia plant response rating,[12]; [14],85
same,"Plant response rating, Kochia",[12]; [15],100
same,"Plant response rating, Kochia",[12]; [16],100
same,"Plant response rating (scale of 0 to 100), Kochia","[12]; Preemergence, 31 g ai/ha",0
same,"Plant response rating, Kochia",[12]; [17],25
same,"Plant response rating, Kochia",[12]; [18],45
same,"Plant response rating, Kochia",[12]; [19],60
same,"Plant response rating, Kochia",[12]; [20],95
same,Chickweed plant response rating,[13]; [14],100
same,"Plant response rating, Chickweed",[13]; [15],100
same,"Plant response rating, Chickweed",[13]; [16],100
same,"Plant response rating (scale of 0 to 100), Chickweed","[13]; Preemergence, 31 g ai/ha",95
same,"Plant response rating, Chickweed",[13]; [17],95
same,"Plant response rating, Chickweed",[13]; [18],100
same,"Plant response rating, Chickweed",[13]; [19],100
same,"Plant response rating, Chickweed",[13]; [20],100
